Test results: patent US20130178475A1, “sGC STIMULATORS” (IRONWOOD PHARMACEUTICALS, INC., priority 2010, published 2013)

Molecular target: T1, soluble guanylate cyclase (sGC) (Homo sapiens, UniProt Q02108+Q02153)
T1 construct: endogenously expressing soluble guanylate cyclase (sGC); endogenous in cells; host or cells: HEK293
T1 sequence (Q02153 1-619): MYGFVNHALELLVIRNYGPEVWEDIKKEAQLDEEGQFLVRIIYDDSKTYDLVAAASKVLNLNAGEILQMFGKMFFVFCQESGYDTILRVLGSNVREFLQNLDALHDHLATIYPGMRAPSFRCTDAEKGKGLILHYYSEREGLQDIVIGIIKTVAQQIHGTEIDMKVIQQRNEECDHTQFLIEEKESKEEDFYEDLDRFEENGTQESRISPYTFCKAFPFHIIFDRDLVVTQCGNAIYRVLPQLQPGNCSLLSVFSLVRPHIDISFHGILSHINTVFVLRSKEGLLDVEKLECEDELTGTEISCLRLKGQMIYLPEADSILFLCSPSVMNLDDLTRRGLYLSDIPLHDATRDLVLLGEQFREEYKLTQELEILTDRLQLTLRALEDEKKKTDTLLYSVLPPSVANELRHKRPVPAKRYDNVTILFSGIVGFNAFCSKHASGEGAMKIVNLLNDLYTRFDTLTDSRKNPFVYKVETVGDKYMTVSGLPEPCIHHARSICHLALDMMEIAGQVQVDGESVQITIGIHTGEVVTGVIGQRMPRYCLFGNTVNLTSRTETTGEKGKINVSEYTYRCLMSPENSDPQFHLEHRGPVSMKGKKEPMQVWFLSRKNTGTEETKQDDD
T1 sequence (Q02108 1-690): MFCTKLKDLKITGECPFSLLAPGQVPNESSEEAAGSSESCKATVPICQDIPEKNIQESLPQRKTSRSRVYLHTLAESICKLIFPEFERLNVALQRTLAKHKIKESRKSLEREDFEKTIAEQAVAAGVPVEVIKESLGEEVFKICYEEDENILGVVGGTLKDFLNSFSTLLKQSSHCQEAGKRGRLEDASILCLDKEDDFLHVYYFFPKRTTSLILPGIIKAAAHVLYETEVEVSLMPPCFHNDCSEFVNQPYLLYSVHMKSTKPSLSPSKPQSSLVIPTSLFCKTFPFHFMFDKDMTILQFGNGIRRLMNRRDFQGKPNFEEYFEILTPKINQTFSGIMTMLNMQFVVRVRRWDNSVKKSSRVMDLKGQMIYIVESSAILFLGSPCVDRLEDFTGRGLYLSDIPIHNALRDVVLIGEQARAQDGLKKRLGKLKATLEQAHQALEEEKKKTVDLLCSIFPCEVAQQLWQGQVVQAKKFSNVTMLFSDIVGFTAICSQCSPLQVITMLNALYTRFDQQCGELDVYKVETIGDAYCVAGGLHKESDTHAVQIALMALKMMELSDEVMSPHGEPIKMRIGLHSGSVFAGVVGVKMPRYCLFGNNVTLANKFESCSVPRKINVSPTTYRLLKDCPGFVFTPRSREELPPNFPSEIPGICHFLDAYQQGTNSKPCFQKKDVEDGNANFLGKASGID
Test: sGC-HEK-cGMP assay
Format: cell-based
Settings: HEK293 cells, 10 min incubation, intracellular cGMP by LC/MS; for Increase in cGMP Concentration Tested at 10 μM in HEK Assay: test compound 10 μM; for Increase in cGMP Concentration Tested at 30 μM in HEK Assay: test compound 30 μM
Protocol: Human embryonic kidney cells (HEK293), endogenously expressing soluble guanylate cyclase (sGC), were used to evaluate the activity of test compounds. Compounds stimulating the sGC receptor should cause an increase in the intracellular concentration of cGMP. […] Cells were then incubated for 15 minutes at 37° C. with 0.5 mM 3-isobutyl-1-methylxanthine (2004). Test article was then added to the assay mixture (2 μL) and incubated at 37° C. for 10 minutes. After the 10 minute incubation, the assay mixture was aspirated and 0.1M HCl (2004) was added to the cells. The plate was incubated at 4° C. for 30 minutes in the 0.1M HCl to stop the reaction and lyse the cells. The plates were then centrifuged at 1,200 g for 5 minutes at room temperature. Supernatants were collected and transferred to a new flat bottom 96 well plate for analysis. Vehicle controls were carried out using DMSO (1%). A known sGC stimulator, BAY 41-2272, was used as the positive control.
Samples were diluted with an equal volume of 1 M Ammonium Acetate (pH 7) to neutralize samples for better chromatography. A 2×cGMP standard curve was prepared in 0.1 M HCl and then diluted with an equal volume of 1 M Ammonium Acetate, with the following final concentrations in nM: 1024, 512, 256, 128, 64, 32, 16, 8, 4, 2, 1.
cGMP concentrations were determined from each sample using the LC/MS conditions (Table 2 below) and calculated standard curve. EC50 values were calculated from concentration-response curves generated with GraphPad Prism Software.

Structure (SMILES)	Increase in cGMP Concentration Tested at 10 μM in HEK Assay	Increase in cGMP Concentration Tested at 30 μM in HEK Assay
Nc1nc(-c2nn(Cc3ccccc3F)c3c2CCC3)nc(N)c1/N=N/c1ccccc1 [Compound I-34]	A (A represents no increase or an increase ranging from more than 0 fold to less than 5 fold)	A (A represents no increase or an increase ranging from more than 0 fold to less than 5 fold)
Fc1ccccc1Cn1nc(-c2ncccn2)c2c1CCC(F)(F)C2 [Compound I-30]	A (A represents no increase or an increase ranging from more than 0 fold to less than 5 fold)	A (A represents no increase or an increase ranging from more than 0 fold to less than 5 fold)
Fc1ccccc1Cn1nc(-c2ncccn2)c2c1CCSC2 [Compound I-15]	C (C represents an increase ranging from 10 fold to less than 20 fold)	C (C represents an increase ranging from 10 fold to less than 20 fold)
O=C(c1ccncc1)N1CCc2c(c(-c3ncccn3)nn2Cc2ccccc2F)C1 [Compound I-55]	A (A represents no increase or an increase ranging from more than 0 fold to less than 5 fold)	A (A represents no increase or an increase ranging from more than 0 fold to less than 5 fold)
Fc1ccccc1Cn1nc(-c2ncccn2)c2c1CCCCC2 [Compound I-18]	B (B represents an increase ranging from 5 fold to less than 10 fold)	C (C represents an increase ranging from 10 fold to less than 20 fold)
Fc1ccccc1Cn1nc(-c2cncnc2)c2c1CCCC2 [Compound I-47, 1-(2-fluorobenzyl)-3-(pyrimidin-5-yl)-4,5,6,7-tetrahydro-1H-indazole]	A (A represents no increase or an increase ranging from more than 0 fold to less than 5 fold)	A (A represents no increase or an increase ranging from more than 0 fold to less than 5 fold)
COc1cccc(Cn2nc(-c3ncccn3)c3c2CCCC3)c1 [Compound I-5]	B (B represents an increase ranging from 5 fold to less than 10 fold)	C (C represents an increase ranging from 10 fold to less than 20 fold)
COc1ccccc1C(=O)N1CCc2c(c(-c3ncccn3)nn2Cc2ccccc2F)C1 [Compound I-57]	B (B represents an increase ranging from 5 fold to less than 10 fold)	C (C represents an increase ranging from 10 fold to less than 20 fold)
CC1(C)C=Cc2c(-c3ncccn3)nn(Cc3ccccc3F)c2C1 [Compound I-33]	A (A represents no increase or an increase ranging from more than 0 fold to less than 5 fold)	A (A represents no increase or an increase ranging from more than 0 fold to less than 5 fold)
Nc1nc(-c2nn(Cc3ccccc3F)c3c2CCCC3)nc(N)c1N [Compound I-12]	A (A represents no increase or an increase ranging from more than 0 fold to less than 5 fold)	A (A represents no increase or an increase ranging from more than 0 fold to less than 5 fold)
O=S1(=O)CCc2c(c(-c3ncccn3)nn2Cc2ccccc2F)C1 [Compound I-19]	A (A represents no increase or an increase ranging from more than 0 fold to less than 5 fold)	A (A represents no increase or an increase ranging from more than 0 fold to less than 5 fold)
